The source of these data is US5958886A, “Carnitine-containing peptides and a method for using the same” (Sigma-Tau Pharmaceuticals, Inc., priority 1998, dated 1999).

One assay addresses T1, peptide carrier (Homo sapiens, UniProt P46059).
T1 construct: endogenous in cells; host or cells: Caco-2 cells
T1 sequence (P46059 1-708): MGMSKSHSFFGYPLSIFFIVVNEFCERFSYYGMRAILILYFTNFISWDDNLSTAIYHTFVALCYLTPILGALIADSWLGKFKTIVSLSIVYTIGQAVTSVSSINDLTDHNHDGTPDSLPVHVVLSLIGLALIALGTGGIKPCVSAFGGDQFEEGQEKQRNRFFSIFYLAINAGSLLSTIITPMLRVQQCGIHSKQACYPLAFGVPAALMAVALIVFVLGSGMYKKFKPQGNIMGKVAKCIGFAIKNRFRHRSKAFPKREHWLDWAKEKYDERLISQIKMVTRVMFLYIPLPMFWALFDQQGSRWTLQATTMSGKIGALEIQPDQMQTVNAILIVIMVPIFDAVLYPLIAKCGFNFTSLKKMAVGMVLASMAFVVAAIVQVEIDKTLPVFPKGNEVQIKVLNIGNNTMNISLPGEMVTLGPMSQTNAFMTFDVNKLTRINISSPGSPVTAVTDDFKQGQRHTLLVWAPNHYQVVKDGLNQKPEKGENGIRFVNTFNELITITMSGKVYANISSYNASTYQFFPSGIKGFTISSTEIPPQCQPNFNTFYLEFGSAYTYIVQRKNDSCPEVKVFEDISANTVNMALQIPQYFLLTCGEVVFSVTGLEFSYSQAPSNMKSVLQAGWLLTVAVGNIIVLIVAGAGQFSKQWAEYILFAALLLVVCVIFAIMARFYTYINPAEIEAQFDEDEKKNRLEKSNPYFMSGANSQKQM
Put plainly: Inhibition of glycyl-sarcosine transport via the peptide carrier in Caco-2 cells. Type of assay: cell-based. The source says:
Carnityl-alanyl-alanine (CAA) is a peptide derivative of carnitine. In this experiment, the ability of CAA to compete with glycyl-sarcosine for transport via the peptide carrier was studied in Caco-2 cells. These cells are a good model system for the human intestine and they express the peptide carrier as does the human intestine. Glycyl-sarcosine is a standard substrate for the peptide carrier. If CAA is taken up by the peptide carrier it is expected to compete with glycyl-sarcosine for transport via the carrier and thus inhibit the transport.
(Caco-2 monolayers are a common model of the intestinal barrier.)

Assay [1] addresses T2, peptide carrier from human intestine (Homo sapiens, UniProt P46059).
T2 construct: expressed in transfected cells; host or cells: Xenopus oocytes injected with peptide transporter mRNA
T2 sequence (P46059 1-708): T1 sequence (P46059 1-708)
Put plainly: Charge transfer in Xenopus oocytes expressing the peptide carrier from human intestine (electrophysiological approach). Type of assay: cell-based. As to conditions: Xenopus oocytes expressing human intestinal peptide carrier; exposure to 10 mM. The source says:
In this experiment, Xenopus (frog) oocytes which were made to express the peptide carrier from human intestine by injection of its peptide transporter mRNA were used to study the transport of CAA via the carrier. The peptide carrier uses the energy from a proton gradient and peptide transport via the carrier leads to a transfer of positive charge into the oocytes. This charge transfer can be monitored using the electrophysiological approach. If CAA is transported via the peptide carrier, exposure of the oocytes to CAA is expected to result in the transfer of positive charge.

Non-standard residues stand in square brackets, D forms with d. Residues, ends and D or L forms follow the SMILES beside them. Sar = CNCC(=O)O

As to `C[N+](C)(C)CC(O)CC(=O)[O-]` (stereo not drawn) [Free carnitine, Carnitine], at peptide carrier (Caco-2 cells, under similar conditions), the “inhibition of glycyl-sarcosine transport (in words)” value is “does not inhibit”.

For the molecule `CN(CC(=O)O)C(=O)CN` [glycyl-sarcosine, Glycyl-sarcosine, reference compound] (H-Gly-[Sar]-OH), the “charge transfer into oocytes (in words)” value in assay [1] is listed as “charge transfer found”.

Turning to Carnityl-alanyl-alanine [CAA], the “inhibition of the transport of glycylsarcosine” value on peptide carrier (Caco-2 cells, at 10 mM) amounted to 35%; on peptide carrier (Caco-2 cells, at 20 mM), 80%. For the same molecule, the “affinity for the intestinal peptide carrier” value at peptide carrier (concluded from the Caco-2 and oocyte experiments) is listed as “millimolar range”. In addition, the “charge transfer into oocytes (in words)” value in assay [1] is listed as “induced charge transfer”.
